Data reported in patent US5684034A, “1H-indole-3-acetamide sPLA2 inhibitors” (Eli Lilly and Company, priority 1995, dated 1997).
“And” between values parts separate entries of the source, which are not always exact repeats. Identical values can stand only once. Counter-ions that a name gives are not always drawn.

Target: T1, recombinant human secreted phospholipase A2 (Homo sapiens, UniProt P14555)
T1 sequence (P14555 21-144): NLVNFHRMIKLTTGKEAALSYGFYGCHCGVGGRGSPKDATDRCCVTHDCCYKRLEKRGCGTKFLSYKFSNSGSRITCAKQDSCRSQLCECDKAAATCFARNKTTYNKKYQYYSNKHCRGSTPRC
Assay: Human secreted phospholipase A2 inhibition test (chromogenic assay, diheptanoyl thio-PC substrate)
Format: biochemical
Settings: Inhibition of human secreted PLA2 IC50 ± mean deviation (3-5 tests), pH 7.5, 40° C., 30 minutes, 405 nm
Procedure: The following chromogenic assay procedure was used to identify and evaluate inhibitors of recombinant human secreted phospholipase A2. The assay described herein has been adapted for high volume screening using 96 well microtiter plates.
A measured volume of racetic dipheptanoyl thio PC supplied in chloroform at a concentration of 100 mg/ml is taken to dryness and redissolved in 10 millimolar TRITON X-100™ nonionic detergent aqueous solution. Reaction Buffer is added to the solution, then DTNB to give the Reaction Mixture.
The reaction mixture thus obtained contains 1 mM diheptanoly thio-PC substrate, 0.29 mm Triton X-100™ detergent, and 0.12 mm DTMB in a buffered aqueous solution at pH 7.5.
1. Add 0.2 ml reaction mixture to all wells;
2. Add 10 ul test compound (or solvent blank) to appropriate wells, mix 20 seconds:
3. Add 50 nanograms of sPLA2 (10 microliters) to appropriate wells;
4. incubate plate at 40° C. for 30 minutes;
All compounds were tested in triplicate. […] Each sample was titrated in triplicate and result values were averaged for plotting and calculation of IC50 values. […] Each IC50 value was determined three times.

IC50 | SMILES
3800 nM and 3600 nM | NC(=O)Cc1cn(Cc2ccccc2)c2ccc(OCP(=O)(O)O)cc12 [Example 81, [[3-(2-Amino-2-oxoethyl)-1-(phenylmethyl)-1H-indol-5-yl]oxy]methyl]phosphonic acid disodium salt]
30 ± 6 nM | NC(=O)Cc1c(Br)n(Cc2ccccc2)c2ccc(OCCCP(=O)(O)O)cc12 [Example 88]
140 ± 40 nM | C=CCc1c(O)ccc2c1c(CC(N)=O)c(CC)n2Cc1ccccc1 [Example 93, 4-Allyl-2-ethyl-5-hydroxy-1-(phenylmethyl)-1H-indole-acetamide]
150 ± 10 nM | Cc1c(CC(N)=O)c2cc(OCc3ccccc3C(=O)O)ccc2n1Cc1ccccc1 [Example 97, 2-[[[3-(2-Amino-2-oxoethyl)-2-methyl-1-(phenylmethyl)-1H-indol-5-yl]oxy]methyl]benzoic acid]

The remaining lines, values behind:

SMILES | IC50
CCc1c(CC(N)=O)c2cc(OCCCP(=O)(OC)OC)ccc2n1Cc1ccccc1 [Example 61, [3-[[3-(2-Amino-2-oxoethyl)-2-ethyl-1-(phenylmethyl)-1H-indol-5-yl]oxy]propyl]phosphonic acid dimethyl ester] | 270 nM
CCc1c(CC(N)=O)c2cc(OCCCP(=O)(O)OC)ccc2n1Cc1ccccc1 [Example 63, [3-[[3-(2-Amino-2-oxoethyl)-2-ethyl-1-(phenylmethyl)-1H-indol-5-yl]oxy]propyl]phosphonic acid monomethyl ester] | 39 ± 5 nM
CCOP(=O)(COc1cccc2c1c(CC(N)=O)c(C)n2Cc1ccccc1)OCC [Example 67] | 1680 nM
Cc1c(CC(N)=O)c2c(OCC(=O)O)cccc2n1Cc1cccc(Cl)c1 [Example 72, [[3-(2-Amino-2-oxoethyl)-1-[(3-chlorophenyl)methyl]-2-methyl-1H-indol-4-yl]oxy]methyl]acetic acid sodium salt] | 50 ± 150 nM
NC(=O)Cc1c(C2CC2)n(Cc2ccccc2)c2ccc(OCCCP(=O)(O)O)cc12 [Example 79, [3-[[3-(2-Amino-2-oxoethyl)-2-cyclopropyl-1-(phenylmethyl)-1H-indol-5-yl]oxy]propyl]phosphonic acid] | 46 ± 6 nM
NC(=O)Cc1cn(Cc2ccccc2)c2ccc(OCCCP(=O)(O)O)cc12 [Example 80, [3-[[3-(2-Amino-2-oxoethyl)-1-(phenylmethyl)-1H-indol-5-yl]oxy]propyl]phosphonic acid] | 200 ± 90 nM
COP(=O)(CCCOc1ccc2c(c1)c(CC(N)=O)c(Br)n2Cc1ccccc1)OC [Example 86, [3-[[3-(2-Amino-2-oxoethyl)-2-bromo-1-(phenylmethyl)-1H-indol-5-yl]oxy]propane]phosphonic acid dimethyl ester] | 420 ± 210 nM
COP(=O)(O)CCCOc1ccc2c(c1)c(CC(N)=O)c(Br)n2Cc1ccccc1 [Example 87] | 72 ± 17 nM

Same assay, conditions: pH 7.5, 40° C., 30 minutes, 405 nm; read-out: Inhibition of human secreted PLA2 IC50 ± mean deviation (3-5 tests)

IC50 | SMILES
3680 ± 190 nM | NC(=O)Cc1cn(Cc2ccccc2)c2ccc(O)cc12 [Example 82, 5-Hydroxy-1-(phenylmethyl)-1H-indole-3-acetamide]
150 ± 40 nM | NC(=O)Cc1cn(Cc2ccccc2)c2ccc(OCCCC(=O)O)cc12 [Example 83, 4-[[3-(2-Amino-2-oxoethyl)-1-(phenylmethyl)-1H-indol-5-yl]oxy]butanoic acid]
195 ± 65 nM | Cc1c(CC(N)=O)c2cc(OCCCS(=O)(=O)O)ccc2n1Cc1ccccc1 [Example 84, 3-[4-[[3-(2-Amino-2-oxoethyl)-2-methyl-1-(phenylmethyl)-1H-indol-5-yl]oxy]propane]sulfonic acid]
120 ± 20 nM | COc1cc2c(CC(N)=O)c(Br)n(Cc3ccccc3)c2cc1Cl [Example 89, 2-Bromo-6-chloro-5-methoxy-1-(phenylmethyl)-H-indole-3-acetamide]
90 ± 10 nM | NC(=O)Cc1c(Br)n(Cc2ccccc2)c2cc(Cl)c(O)cc12 [Example 90, 2-Bromo-6-chloro-5-hydroxy-1-(phenylmethyl)-H-indole-3-acetamide]
14 ± 4 nM | NC(=O)Cc1cn(Cc2ccccc2)c2cc(Cl)c(OCCCP(=O)(O)O)cc12 [Example 92, 3-[4-[[3-(2-Amino-2-oxoethyl)-6-chloro-1-(phenylmethyl)-1H-indol-5-yl]oxy]propyl]phosphonic acid]
612 ± 65 nM | C=CCc1c(OCCCP(=O)(O)O)ccc2c1c(CC(N)=O)c(CC)n2Cc1ccccc1 [Example 94, [3-[[4-Allyl-3-(2-amino-2-oxoethyl)-2-ethyl-1-(phenylmethyl)-1H-indol-5-yl]oxy]propyl]phosphonic acid disodium salt]
1010 ± 320 nM | Cc1c(CC(N)=O)c2cc(Oc3ccccc3)ccc2n1Cc1ccccc1 [Example 95, 2-Methyl-5-phenoxy-1-(phenylmethyl)-1H-indole-3-acetamide]
620 ± 180 nM | COC(=O)c1ccccc1COc1ccc2c(c1)c(CC(N)=O)c(C)n2Cc1ccccc1 [Example 96, 2-[[[3-(2-Amino-2-oxoethyl)-2-methyl-1-(phenylmethyl)-1H-indol-5-yl]oxy]methyl]benzoic acid methyl ester]
1150 ± 320 nM | CCc1c(CC(N)=O)c2cc(OCc3ccccc3C(=O)OC)ccc2n1Cc1ccccc1 [Example 98, 2-[[[3-(2-Amino-2-oxoethyl)-2-ethyl-1-(phenylmethyl)-1H-indol-5-yl]oxy]methyl]benzoic acid methyl ester]
540 ± 180 nM | CCc1c(CC(N)=O)c2cc(OCc3ccccc3C(=O)O)ccc2n1Cc1ccccc1 [Example 99, 2-[[[3-(2-Amino-2-oxoethyl)-2-ethyl-1-(phenylmethyl)-1H-indol-5-yl]oxy]methyl]benzoic acid]
3840 ± 1320 nM | COC(=O)c1cccc(COc2ccc3c(c2)c(CC(N)=O)c(C)n3Cc2ccccc2)c1 [Example 100, 3-[[[3-(2-Amino-2-oxoethyl)-2-methyl-1-(phenylmethyl)-1H-indol-5-yl]oxy]methyl]benzoic acid methyl ester]
1890 ± 500 nM | Cc1c(CC(N)=O)c2cc(OCc3cccc(C(=O)O)c3)ccc2n1Cc1ccccc1 [Example 101, 3-[[[3-(2-Amino-2-oxoethyl)-2-methyl-1-(phenylmethyl)-1H-indol-5-yl]oxy]methyl]benzoic acid]

Continued, molecule first:

SMILES | IC50
CCOC(=O)CCCOc1ccc2c(c1)c(CC(N)=O)c(CC)n2Cc1ccccc1 [Example 57] | 1270 nM
CCc1c(CC(N)=O)c2cc(OCCCC(=O)NN)ccc2n1Cc1ccccc1 [Example 59] | 74 nM
CCc1c(CC(N)=O)c2cc(OCCCC(N)=O)ccc2n1Cc1ccccc1 [Example 60, 5-(4-Amino-4-oxobutoxy)-2-ethyl-1-(phenylmethyl)-1H-indole-3-acetamide] | 104 ± 17 nM
CCc1c(CC(N)=O)c2cc(OCCCP(=O)(O)O)ccc2n1Cc1cccc(Cl)c1 [Example 64, [3-[[3-(2-Amino-2-oxoethyl)-1-[(3-chlorophenyl)methyl]-2-ethyl-1H-indol-5-yl]oxy]propyl]phosphonic acid] | 16 ± 1 nM
Cc1c(CC(N)=O)c2c(OCC(=O)NN)cccc2n1Cc1ccccc1 [Example 65, 4-(2-Hydrazino-2-oxoethoxy)-2-methyl-1-(phenylmethyl)-1H-indole-3-acetamide] | 360 ± 130 nM
Cc1c(CC(N)=O)c2c(OCC(N)=O)cccc2n1Cc1ccccc1 [Example 66, 4-(2-Amino-2-oxoethoxy)-2-methyl-1-(phenylmethyl)-1H-indole-3-acetamide] | 360 ± 70 nM
COc1ccc2c(c1)c(CC(N)=O)c(C)n2Cc1cccc(Cl)c1 [Example 69, 1-[(3-Chlorophenyl)methyl]-5-methoxy-2-methyl-1H-indole-3-acetamide] | 1380 ± 520 nM
Cc1c(CC(N)=O)c2cc(O)ccc2n1Cc1cccc(Cl)c1 [Example 70, 1-[(3-Chlorophenyl)methyl]-5-hydroxy-2-methyl-1H-indole-3-acetamide] | 5880 ± 1170 nM
COC(=O)COc1cccc2c1c(CC(N)=O)c(C)n2Cc1cccc(Cl)c1 [Example 71] | 2370 ± 790 nM
Cc1c(CC(N)=O)c2c(OCC(=O)O)cccc2n1Cc1ccccc1-c1ccccc1 [Example 73, [[3-(2-Amino-2-oxoethyl)-1-([1,1'-biphenyl]-2-ylmethyl)-2-methyl-1H-indol-4-yl]oxy]acetic acid sodium salt] | 10 ± 1 nM
CCc1c(CC(N)=O)c2c(OCC(=O)O)cccc2n1Cc1cccc(Cl)c1 [Example 75, 2-[[3-(2-Amino-2-oxoethyl)-1-[(3-chlorophenyl)methyl]-2-ethyl-1H-indol-4-yl]oxy]acetic acid] | 39 ± 4 nM
NC(=O)Cc1cn(Cc2ccccc2)c2cccc(OCC(=O)O)c12 [Example 76, 2-[[3-(2-Amino-2-oxoethyl)-1-(phenylmethyl)-1H-indol-4-yl]oxy]acetic acid] | 337 nM and 305 nM
COc1ccc2c(c1)c(CC(N)=O)c(C1CC1)n2Cc1ccccc1 [Example 77, 2-Cyclopropyl-5-methoxy-1-(phenylmethyl)-1H-indole-3-acetamide] | 336 ± 23 nM
NC(=O)Cc1c(C2CC2)n(Cc2ccccc2)c2ccc(O)cc12 [Example 78, 2-Cyclopropyl-5-hydroxy-1-(phenylmethyl)-1H-indole-3-acetamide] | 118 ± 11 nM
